The source of these data is the supplement of paper PMC10307832.

Experiment in all cases: relative viability (nuclei count vs DMSO), 5 days (fraction); higher = more cells survive
Compound in the test “AZ628 + Crizotinib”: CC1=C(C=C(C=C1)NC(=O)C2=CC(=CC=C2)C(C)(C)C#N)NC3=CC4=C(C=C3)N=CN(C4=O)C [AZ628] + C[C@@H](Oc1cc(-c2cnn(C3CCNCC3)c2)cnc1N)c1c(Cl)ccc(F)c1Cl [Crizotinib] (partner 1 µM)
A digest of the protocol: (§1)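 Lung cancer cell lines in 1536-well plates got either a single drug or a fixed anchor-drug dose together with five library-drug doses (not always all listed) in √10 steps, by pin tool, on the day after seeding. Nuclei were counted after 5 days, and relative viability is the treated-to-vehicle ratio of nuclei counts. Values are medians of duplicate plates.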

Compound in test [1]: C[As](C)SC[C@H](NC(=O)CC[C@H](N)C(=O)O)C(=O)NCC(=O)O [Darinaparsin] + CCNC(=O)c1noc(-c2cc(C(C)C)c(O)cc2O)c1-c1ccc(CN2CCOCC2)cc1 [Luminespib] (partner 0.01 µM)
A digest of the protocol: as §1

Compound in test [2]: C[As](C)SC[C@H](NC(=O)CC[C@H](N)C(=O)O)C(=O)NCC(=O)O [Darinaparsin] + C[C@@H](Oc1cc(-c2cnn(C3CCNCC3)c2)cnc1N)c1c(Cl)ccc(F)c1Cl [Crizotinib] (partner 1 µM)
A digest of the protocol: as §1

Compound in test [3]: C[As](C)SC[C@H](NC(=O)CC[C@H](N)C(=O)O)C(=O)NCC(=O)O [Darinaparsin] + Nc1nc2[nH]cc(CCc3ccc(C(=O)N[C@@H](CCC(=O)O)C(=O)O)cc3)c2c(=O)[nH]1 [Pemetrexed] (partner 0.2 µM)
A digest of the protocol: as §1

As to ChaGo-K-1, the relative viability with AZ628 + Crizotinib (first compound 0.08 µM) came out at 1.18; in the test with AZ628 + Crizotinib (first compound 0.8 µM), 1.15; in the test with AZ628 + Crizotinib (first compound 2.53 µM), 1.11; in the test with AZ628 + Crizotinib (first compound 8 µM) it was 1.16; in test [1] (first compound 0.08 µM), 0.692; in test [1] (first compound 0.8 µM), 0.502. The relative viability in test [1] (first compound 2.53 µM) amounted to 0.55; in test [1] (first compound 8 µM), 0.786; in test [2] (first compound 0.08 µM), 1.38; in test [2] (first compound 0.8 µM), 1.14; in test [2] (first compound 2.53 µM), 0.924; in test [2] (first compound 8 µM), 1.1. Moreover, the relative viability in test [3] (first compound 0.08 µM) was found to be 0.251; in test [3] (first compound 0.8 µM) it was 0.266; in test [3] (first compound 2.53 µM), 0.271; in test [3] (first compound 8 µM), 0.263.
As for EBC-1, the relative viability in the test with AZ628 + Crizotinib (first compound 0.08 µM) was determined as 0.201; with AZ628 + Crizotinib (first compound 0.253 µM) it was 0.212; in the test with AZ628 + Crizotinib (first compound 0.8 µM), 0.169; in the test with AZ628 + Crizotinib (first compound 2.53 µM), 0.197; with AZ628 + Crizotinib (first compound 8 µM), 0.168; in test [2] (first compound 0.08 µM), 0.196. Further, the relative viability in test [2] (first compound 0.8 µM) turned out to be 0.19; in test [2] (first compound 2.53 µM) it was 0.181; in test [2] (first compound 8 µM), 0.166.
EKVX: the relative viability with AZ628 + Crizotinib (first compound 0.08 µM) was found to be 1.16; with AZ628 + Crizotinib (first compound 0.253 µM) it was 0.913; with AZ628 + Crizotinib (first compound 0.8 µM), 1; in the test with AZ628 + Crizotinib (first compound 2.53 µM) it was 0.975; with AZ628 + Crizotinib (first compound 8 µM), 0.751; in test [1] (first compound 0.08 µM), 0.872. The relative viability in test [1] (first compound 0.8 µM) was determined as 0.924; in test [1] (first compound 2.53 µM), 0.926; in test [1] (first compound 8 µM), 0.962; in test [2] (first compound 0.08 µM), 1.22; in test [2] (first compound 0.8 µM), 0.935; in test [2] (first compound 2.53 µM), 0.813. Moreover, the relative viability in test [2] (first compound 8 µM) is 1.23; in test [3] (first compound 0.08 µM), 0.458; in test [3] (first compound 0.8 µM), 0.385; in test [3] (first compound 2.53 µM), 0.388; in test [3] (first compound 8 µM), 0.412.
Consider EMC-BAC-2, for which the relative viability with AZ628 + Crizotinib (first compound 0.08 µM) amounted to 0.809; with AZ628 + Crizotinib (first compound 0.253 µM), 0.759; with AZ628 + Crizotinib (first compound 0.8 µM), 0.76; with AZ628 + Crizotinib (first compound 2.53 µM), 0.795; in the test with AZ628 + Crizotinib (first compound 8 µM) it was 0.874; in test [1] (first compound 0.08 µM) it was 0.763. The relative viability worked out at 1.15 in test [1] (first compound 0.8 µM); 1.16 in test [1] (first compound 2.53 µM); 1.49 in test [1] (first compound 8 µM); 0.812 in test [2] (first compound 0.08 µM); 0.772 in test [2] (first compound 0.8 µM); 0.676 in test [2] (first compound 2.53 µM). Moreover, the relative viability in test [2] (first compound 8 µM) is 0.801; in test [3] (first compound 0.08 µM), 0.452; in test [3] (first compound 0.8 µM), 0.44; in test [3] (first compound 2.53 µM) it was 0.53; in test [3] (first compound 8 µM), 0.472.
Turning to EPLC-272H, the relative viability was 0.904 with AZ628 + Crizotinib (first compound 0.08 µM); 0.957 with AZ628 + Crizotinib (first compound 0.253 µM); 0.848 in the test with AZ628 + Crizotinib (first compound 0.8 µM); 0.851 with AZ628 + Crizotinib (first compound 2.53 µM); 0.813 with AZ628 + Crizotinib (first compound 8 µM); 0.176 in test [1] (first compound 0.8 µM). In addition, the relative viability in test [1] (first compound 2.53 µM) came out at 0.328; in test [1] (first compound 8 µM), 0.191; in test [2] (first compound 0.08 µM), 1.02; in test [2] (first compound 0.8 µM) it was 0.529; in test [2] (first compound 2.53 µM) it was 0.649; in test [2] (first compound 8 µM), 0.89. In addition, the relative viability in test [3] (first compound 0.08 µM) amounted to 0.319; in test [3] (first compound 0.8 µM), 0.292; in test [3] (first compound 2.53 µM), 0.321; in test [3] (first compound 8 µM), 0.293.
Take H3255: the relative viability with AZ628 + Crizotinib (first compound 0.08 µM) was 0.926; with AZ628 + Crizotinib (first compound 0.253 µM) it was 0.921; with AZ628 + Crizotinib (first compound 0.8 µM) it was 0.949; with AZ628 + Crizotinib (first compound 2.53 µM) it was 0.866; with AZ628 + Crizotinib (first compound 8 µM), 0.704; in test [1] (first compound 0.08 µM), 0.88. Also, the relative viability is 0.94 in test [1] (first compound 0.8 µM); 0.807 in test [1] (first compound 2.53 µM); 0.95 in test [1] (first compound 8 µM); 1.14 in test [2] (first compound 0.08 µM); 0.773 in test [2] (first compound 0.8 µM); 0.789 in test [2] (first compound 2.53 µM). The relative viability amounted to 0.895 in test [2] (first compound 8 µM); 0.576 in test [3] (first compound 0.08 µM); 0.587 in test [3] (first compound 0.8 µM); 0.522 in test [3] (first compound 2.53 µM); 0.54 in test [3] (first compound 8 µM).
Consider HARA, for which the relative viability in the test with AZ628 + Crizotinib (first compound 0.08 µM) came out at 0.904; in the test with AZ628 + Crizotinib (first compound 0.253 µM) it was 1.05; in the test with AZ628 + Crizotinib (first compound 0.8 µM), 0.951; with AZ628 + Crizotinib (first compound 2.53 µM) it was 0.82; with AZ628 + Crizotinib (first compound 8 µM), 0.476; in test [1] (first compound 0.08 µM), 1.19. The relative viability in test [1] (first compound 0.8 µM) was determined as 0.684; in test [1] (first compound 2.53 µM), 0.659; in test [1] (first compound 8 µM) it was 0.773; in test [2] (first compound 0.08 µM), 1.46; in test [2] (first compound 0.8 µM), 1.05; in test [2] (first compound 2.53 µM), 0.783. Moreover, the relative viability in test [2] (first compound 8 µM) was 1.27; in test [3] (first compound 0.08 µM), 0.269; in test [3] (first compound 2.53 µM), 0.22; in test [3] (first compound 8 µM), 0.294.
Regarding HCC-15, the relative viability with AZ628 + Crizotinib (first compound 0.08 µM) was found to be 0.81; with AZ628 + Crizotinib (first compound 0.253 µM), 0.793; with AZ628 + Crizotinib (first compound 0.8 µM), 0.767; with AZ628 + Crizotinib (first compound 2.53 µM), 0.77; in the test with AZ628 + Crizotinib (first compound 8 µM), 0.446; in test [1] (first compound 0.08 µM) it was 0.461. Moreover, the relative viability is 0.253 in test [1] (first compound 0.8 µM); 0.326 in test [1] (first compound 2.53 µM); 0.467 in test [1] (first compound 8 µM); 0.931 in test [2] (first compound 0.08 µM); 0.743 in test [2] (first compound 0.8 µM); 0.784 in test [2] (first compound 2.53 µM). Further, the relative viability in test [2] (first compound 8 µM) amounted to 1.06; in test [3] (first compound 0.08 µM), 0.223; in test [3] (first compound 0.8 µM), 0.221; in test [3] (first compound 2.53 µM), 0.211; in test [3] (first compound 8 µM), 0.213.
